Several values for one entry are separate records, joined by “and”; a condition that tells them apart may be missing. Identical values can stand only once.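 In this assay, cells in 96-well plates receive the compound at five concentrations for 48 hours. Endpoints are linearly interpolated between the surrounding concentrations. The concentration for 50% growth inhibition is given as GI50. TGI marks complete inhibition of growth.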
How the values were obtained:
Experiment in all cases: DTP human tumour cell line panel, 48 h
NCI-H23 lung = test system: NCI-H23 lung
HCC-2998 colon = test system: HCC-2998 colon
K-562 leukemia = test system: K-562 leukemia
HT29 colon = test system: HT29 colon
NCI-H460 lung = test system: NCI-H460 lung
A498 renal = test system: A498 renal
HOP-92 NSCLC = test system: HOP-92 NSCLC
DU-145 prostate = test system: DU-145 prostate
SNB-75 CNS = test system: SNB-75 CNS
IGROV1 ovarian = test system: IGROV1 ovarian

| Compound | GI50 (NCI-H23 lung) [µM] | TGI (NCI-H23 lung) | GI50 (HCC-2998 colon) [µM] | TGI (HCC-2998 colon) | GI50 (K-562 leukemia) [µM] | TGI (K-562 leukemia) [µM] | GI50 (HT29 colon) [µM] | TGI (HT29 colon) | GI50 (NCI-H460 lung) | TGI (NCI-H460 lung) | GI50 (A498 renal) [µM] | GI50 (HOP-92 NSCLC) [µM] | TGI (HOP-92 NSCLC) | TGI (DU-145 prostate) [µM] | GI50 (SNB-75 CNS) [µM] | TGI (SNB-75 CNS) | TGI (IGROV1 ovarian) | TGI (A498 renal) [µM] | GI50 (DU-145 prostate) [µM] | GI50 (IGROV1 ovarian) [µM] |
| --- | --- | --- | --- | --- | --- | --- | --- | --- | --- | --- | --- | --- | --- | --- | --- | --- | --- | --- | --- | --- |
| CC1=C2C(=CO[C@H](C)[C@H]2C)C(=O)C(C(=O)O)=C1O | 24.1 | 71.4 µM and 58.4 µM | 23.7 | 42.6 µM and 57.9 µM | 36.9 | 54.8 | 18.3 | 63.9 µM and 88.9 µM | 30.1 µM and 73 µM | > 90.1 µM and 149 µM | 32.7 | 16.1 | 72.6 µM and 46.3 µM | 68.3 | 21.2 | 111 µM and > 62.1 µM | 69.6 µM and 49.4 µM |  |  |  |
| CCOP(=O)(OCC)/C(=C/c1cccs1)CC(C)=O |  | > 100 µM |  | > 100 µM |  | > 100 |  | > 100 µM |  | > 100 µM |  |  | > 100 µM | > 100 |  | > 100 µM | > 100 µM | > 100 |  |  |
| CCOC(=O)c1cc2c([N+](=O)[O-])c(N)ccc2s1 |  | > 100 µM |  | > 100 µM |  | > 100 |  | > 100 µM |  | > 100 µM |  |  | > 100 µM | > 100 |  | > 100 µM | > 100 µM | > 100 |  |  |
| COc1cnc2c(c1)C(=O)c1c-2n(CCCNCCO)c(=O)c2ccncc12 | 1.65 | 6.91 µM | 1.58 | 4.19 µM | 0.856 | 13 | 0.633 | 16.7 µM | 0.513 µM | 3.99 µM | 0.772 | 1.4 | 6.31 µM | 6.73 | 1.13 | 4.2 µM | > 100 µM | 2.62 | 1.36 | 2.65 |
| O=[N+]([O-])c1cccc(N=Nc2c(O)c(S(=O)(=O)O)cc3cc(S(=O)(=O)O)ccc23)c1 |  | > 100 µM |  | > 100 µM |  | > 100 |  |  |  | > 100 µM |  |  | > 100 µM | > 100 |  | > 100 µM | > 100 µM | > 100 |  |  |
| CC(C)=CCNc1nc(Cl)nc2nc[nH]c12 |  | > 100 µM |  | > 100 µM |  | > 100 |  | > 100 µM |  | 68.8 µM |  |  | 87.5 µM | > 100 |  | > 100 µM | > 100 µM | > 100 |  |  |
| COC(=O)C1C(=O)N(C)C(=O)N2CCCC12 (configuration not stated) |  | > 100 µM |  | > 100 µM |  | > 100 |  | > 100 µM |  | > 100 µM |  |  | > 100 µM | > 100 |  | > 100 µM | > 100 µM | > 100 |  |  |
| C=C(C)[C@H]1C2=CC(C)=C(O2)[C@@H](O[C@@H]2c3oc(cc3C)[C@H](C(=C)C)[C@H]3C=C(CC[C@H]2C(=C)C)C(=O)O3)[C@H](C(=C)C)CCC2=C[C@H]1OC2=O |  | > 100 µM |  | > 100 µM |  | > 100 |  |  |  | > 100 µM |  |  | > 100 µM | > 100 |  | > 100 µM | > 100 µM | > 100 |  |  |
| O=C1c2c(O)cccc2-c2nn(CCNCCO)c3ccc(NCCNCCO)c1c23 |  | 0.592 µM |  | 1 µM |  |  |  | 13.1 µM |  | 0.934 µM |  |  | 0.609 µM | 0.0707 |  | 1.14 µM | 5.8 µM | 0.578 |  |  |
| CC1(C)CC(=O)C2(CC(CSc3ccccc3)C(CS(=O)(=O)c3ccccc3)C2)C(=O)C1 (configuration not stated) |  | > 100 µM |  | > 100 µM |  | > 100 |  | > 100 µM |  |  |  |  | > 100 µM | > 100 |  | > 100 µM | > 100 µM | > 100 |  |  |
| CCOC(=O)c1cc(C)nc2c1c(=O)n(-c1ccccc1)c(=O)n2CCCCN1CCN(c2ccccc2)CC1 |  | > 100 µM |  | > 100 µM |  | > 100 |  | > 100 µM |  |  |  |  | > 100 µM | > 100 |  | > 100 µM | > 100 µM | > 100 |  |  |
| c1ccc(CN2CCC(Nc3ccccc3)(c3nnnn3Cc3ccccc3)CC2)cc1 |  | > 100 µM |  | 10.5 µM |  |  |  | 24.2 µM |  | 53.9 µM |  |  | 34.5 µM | > 100 |  | 92.6 µM | > 100 µM | 63.8 |  |  |
| Nc1nc(Cl)cc(NC23CC4CC(CC(C4)C2)C3)n1 |  | > 100 µM |  | > 100 µM |  | > 100 |  |  |  | > 100 µM |  |  | > 100 µM | > 100 |  | 90.8 µM | > 100 µM | > 100 |  |  |
| Cn1c(=O)oc2nc(-c3ccccc3)cc(C(F)(F)F)c21 |  | > 100 µM |  | > 100 µM |  |  |  | > 100 µM |  | > 100 µM |  |  | 81 µM | > 100 |  | > 100 µM | > 100 µM | 55.7 |  |  |
| CCCSc1ccc2[nH]c(N3C(=O)/C(=C/c4ccccc4)N=C3c3ccccc3)cc2c1 |  | > 50 µM |  | 44.6 µM |  | > 50 |  | > 50 µM |  |  |  |  | > 50 µM | > 50 |  | > 50 µM | > 50 µM | > 50 |  |  |
| O=C(Nc1ccccc1C(=O)NCc1ccccc1)/C(=C/c1ccccc1)NC(=O)c1ccccc1 |  | > 100 µM |  | > 100 µM |  | > 100 |  | > 100 µM |  |  |  |  | > 100 µM | > 100 |  | > 100 µM | > 100 µM | > 100 |  |  |

— PubChem BioAssay (NCI)
